What was measured:
[1] = system: S.e. (clin. isolate Motol); assay type: cell-based, Staphylococcus epidermidis; conditions: 37° C for 20 h
Summary of the method: (§1)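 Exponential-phase cultures, diluted in fresh medium (BHI for E. faecalis, LB for the others), were added to peptides in LB at final 0.5 to 100 µmol.l^-1, ca 10^5 CFU per well. Plates were shaken at 37 °C for 20 h with A540 read every 15 min; MIC was taken from growth.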

human red blood cells = test: Determination of haemolytic activity; assay type: cell-based; conditions: human red blood cells (5% v/v), 1 h at 37 °C; concentration for lysis of 50% of erythrocytes
Summary of the method: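 Peptides at 2-400 µmol.1^-1 were incubated with 5% v/v human erythrocytes in physiological solution for 1 h at 37 °C; haemoglobin release measured as supernatant absorbance at 540 nm after centrifugation, with 0.2% Triton X-100 as 100% lysis. Reported as LC50, the concentration lysing 50% of cells.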

Bacillus subtilis = assay type: cell-based; conditions: B.s.; 37° C for 20 h
Summary of the method: as §1

Candida albicans = assay type: cell-based; conditions: C.a.; 37° C for 20 h
Escherichia coli = assay type: cell-based; conditions: E.c.; 37° C for 20 h
Summary of the method: as §1

[2] = system: Candida albicans ATCC MYA-2876; test: Biofilm formation on the surface of a bone cement implant in femur heads; assay type: cell-based; conditions: two days, cement without peptide 4.4x10^5
Description: (§5) The resulting elastic paste is placed into a 2 ml plastic syringe (without needle) and pressed into the infected holes in the spongy part of the bone, where it polymerizes and hardens. For comparison, other similarly infected holes are filled with cement containing only an antibiotic or antimycotic agent. […] The mixture in an amount of 125 mg is mixed with liquid monomer (50-60 µl) and then pressed into the openings as described above. In another embodiment, the cements are applied to uninfected holes, allowed to harden, and then microbes are pipetted into the hole excavated between implants. From there they penetrate through bone tissue and settle on the implants with consequent formation of biofilms.
(§6) After two days, implants are removed with metal spikes and tweezers, mechanically cleaned from debris of bone tissue, and washed four times with physiological saline (0.5 ml) in plastic tubes to remove any residual planktonic microbes or bone cells from their surface. The implants in closed tubes with 0.4 ml saline are then sonicated four times for 3 min with occasional shaking. The of microbial biofilm on the surface of the implant is thus disrupted and microbes are loosed into the physiological saline. The resulting suspension is subsequently diluted using the tenfold serial dilution for culturing on agar. […]

[3] = system: Candida albicans (clin. isolate Olomouc); test: as above; assay type: cell-based; conditions: two days
Description: (§7) The resulting elastic paste is placed into a 2 ml plastic syringe (without needle) and pressed into the infected holes in the spongy part of the bone, where it polymerizes and hardens. For comparison, other similarly infected holes are filled with cement containing only an antibiotic or antimycotic agent. For comparison, a Vancogenx® cement (Tecresa S. p. A., Italy) is used, made from a mixture of a powdered polymer component containing vancomycin and gentamicin. The mixture in an amount of 125 mg is mixed with liquid monomer (50-60 µl) and then pressed into the openings as described above. In another embodiment, the cements are applied to uninfected holes, allowed to harden, and then microbes are pipetted into the hole excavated between implants. From there they penetrate through bone tissue and settle on the implants with consequent formation of biofilms.
(§8) After two days, implants are removed with metal spikes and tweezers, mechanically cleaned from debris of bone tissue, and washed four times with physiological saline (0.5 ml) in plastic tubes to remove any residual planktonic microbes or bone cells from their surface. The implants in closed tubes with 0.4 ml saline are then sonicated four times for 3 min with occasional shaking. The of microbial biofilm on the surface of the implant is thus disrupted and microbes are loosed into the physiological saline. The resulting suspension is subsequently diluted using the tenfold serial dilution for culturing on agar.
(§9) Evaluation of the effect of antimicrobial peptides on the formation of microbial biofilm on the surface of the implant made of the bone cement.

Candida glabrata DSY565 = test: as above; assay type: cell-based; conditions: two days, cement without peptide 1.3x10^6
Description: as §7
(§10) After two days, implants are removed with metal spikes and tweezers, mechanically cleaned from debris of bone tissue, and washed four times with physiological saline (0.5 ml) in plastic tubes to remove any residual planktonic microbes or bone cells from their surface. The implants in closed tubes with 0.4 ml saline are then sonicated four times for 3 min with occasional shaking. The of microbial biofilm on the surface of the implant is thus disrupted and microbes are loosed into the physiological saline. […]

[4] = system: E.f. (clin. isolate Motol); assay type: cell-based, Enterococcus faecalis; conditions: 37° C for 20 h
Summary of the method: as §1

[5] = system: Candida albicans yeast (clinical isolate Olomouc); test: Comparison of two similar halictin peptides for biofilm formation on the implant surface (yeast pipetted into a hole between implants); assay type: cell-based; conditions: 3.5 mg peptide in 100 mg powder cement component; two days; implant without peptide 1.8 × 10^3
Description: The experiment was performed under similar conditions as described in Example 5. Here, 100 mg of the powder cement component was used to prepare a paste, which was mixed with in 3.5 mg of peptide XIII and subsequently 52 µl of liquid component. The resulting paste was thoroughly mixed and then pressed into a hole prepared in the spongy part of the bone. To a next hole in the spongy part of the same bone a paste was pressed, containing comparative peptide Hal 2/4 (3.5 mg) with the sequence H-[…]NH2, which was also prepared from 100 mg of the powder component and 52 µl of the liquid component. The third hole was filled with paste without peptide prepared from the same amount of components. The Candida albicans yeast (clinical isolate Olomouc), grown in YPG, was pipetted in the hole excavated between implants equidistant (approximately 1 cm) from each. From there, the yeast penetrated through the bone tissue and was deposited on the implant with consequent formation of biofilms.
Then the implants in closed tubes with 0.4 ml of saline were treated ultrasonically four times for three minutes with occasional shaking. This way, microbial biofilm on the surface of the implant was disrupted and microbes loosed into the physiological saline. The resulting suspension was then diluted in a decimal dilution series for culturing on agar. […]

P.a. 5482 = assay type: cell-based, Pseudomonas aeruginosa; conditions: 37° C for 20 h
Summary of the method: as §1

[6] = system: P.a. (clin. isolate Liberec); assay type: cell-based, Pseudomonas aeruginosa; conditions: 37° C for 20 h
Summary of the method: as §1

[7] = system: MRSA (clin. isolate Liberec); assay type: cell-based, Staphylococcus aureus; conditions: 37° C for 20 h
Summary of the method: as §1

[8] = system: MRSA (clin. isolate Motol); assay type: cell-based, Staphylococcus aureus; conditions: 37° C for 20 h
Summary of the method: as §1

MRSA 6271 [9] = assay type: cell-based, Staphylococcus aureus; conditions: 37° C for 20 h
Summary of the method: as §1

[10] = system: MRSA (clin. isolate Liberec); test: Induced osteomyelitis model in femur heads: effect of peptides released from carrier on infection in the bone graft; assay type: cell-based, Staphylococcus aureus; conditions: ChronOS (200 mg); 10 mg, separate holes; two days; carrier without peptide 3,4x10^7
Description: (§2) 3-4 holes of a diameter of 5 mm and a depth of 10 mm are drilled with a surgical spoon into a femur head under sterile conditions (spongy part of the bone in the resection site). Thereafter, this bone graft is put into a beaker of appropriate size and lined with sterile gauze squares. The gauze is moistened with sterile physiological saline to prevent drying of the bone. Then, suspension of multiplied microbes in an appropriate medium (50-100 µl) at a concentration of 10^7 to 10^9 CFU is sequentially applied to the prepared holes in the bone graft and allowed to incubate for 1-2 days. […] Beaker with the infected bone graft is covered with a sterile Petri dish. During the experiment, induced osteomyelitis models are kept protected from light at room temperature.
(§3) After the incubation, the infected holes in the bone are filled with a mixture of the local carrier, and a peptide selected from the series of peptides of formulae I to XIII or their specific enantiomers (Figure 1). For comparison, one of the holes is filled with the local carrier without peptide, or the carrier filled with antibiotic (vancomycin or gentamicin). A commercially available two-component material supplied by Synthes (Synthes GmbH, Switzerland) under the name ChronOS Inject was used as the carrier. Its solid component comprises a mixture of calcium phosphates CaHPO4.2H2O and Ca3(PO4)2 and additives, the liquid component is 0.5% (vol./vol.) solution of hyaluronic acid.
(§4) After two days, the filling is thoroughly removed with a surgical spoon and empty holes are wiped with moistened sterile cotton swab, which is then extracted into 400 µl physiological saline. The extract is diluted in a tenfold serial dilution and each diluted suspension is cultured on agar in Petri dishes; the culture is evaluated on the following day. […] The result of the peptide effect is also compared with the result of the effect of antibiotics. In some cases, microbiological examination of the bone tissue taken with a surgical spoon from a deeper area of the drilled holes is performed. […] Table 3. Evaluation of the effect of antimicrobial peptides released from the carrier on an infection in the bone graft. Effect of antimicrobial activity is expressed in the number of CFU (colony-forming units) in the infected hole after swabbing.

MRSA 6271 [11] = test: as above; assay type: cell-based, Staphylococcus aureus; conditions: ChronOS (200 mg), two days, carrier without peptide 7,0x10^7
Description: as §2, §3, §4

[12] = system: P. aeruginosa (clin. isolate Liberec); test: Biofilm formation on the surface of a bone cement implant in femur heads; assay type: cell-based; conditions: two days, cement without peptide N/A
Description: as §5, §6

MRSA 6271 [13] = test: as above; assay type: cell-based, Staphylococcus aureus; conditions: two days, cement without peptide N/A
Description: as §7, §8, §9

[14] = system: Candida tropicalis ATCC 750; test: as above; assay type: cell-based; conditions: two days, cement without peptide 3.7x10^5
Description: as §5, §6

P. aeruginosa 5482 = test: as above; assay type: cell-based; conditions: two days, cement without peptide 2.8x10^6
Description: as §5, §6

[15] = system: S. epidermidis (clin. isolate Motol); test: Induced osteomyelitis model in femur heads: effect of peptides released from carrier on infection in the bone graft; assay type: cell-based; conditions: ChronOS (300 mg); 10 mg, separate holes; two days; carrier without peptide 1,2x10^5
Description: as §2, §3, §4

[16] = system: Enterococcus faecalis (clin. isolate Motol); test: Biofilm formation on the surface of a bone cement implant in femur heads; assay type: cell-based; conditions: two days
Description: as §7, §10

[17] = system: MRSA (clin. isolate Motol); test: as above; assay type: cell-based, Staphylococcus aureus; conditions: two days, cement without peptide 3,4x10^5
Description: as §7, §10

| SMILES | Antimicrobial activity MIC [1] | Hemolytic activity LC50 (human red blood cells) | Antimicrobial activity MIC (Bacillus subtilis) | Antimicrobial activity MIC (Candida albicans) | Antimicrobial activity MIC (Escherichia coli) | Antimicrobial activity MIC [4] | Antimicrobial activity MIC (P.a. 5482) | Antimicrobial activity MIC [6] | Antimicrobial activity MIC [7] | Antimicrobial activity MIC [8] | Antimicrobial activity MIC (MRSA 6271 [9]) | other results |
| --- | --- | --- | --- | --- | --- | --- | --- | --- | --- | --- | --- | --- |
| CC[C@H](C)[C@H](NC(=O)[C@H](CCCCN)NC(=O)[C@H](CCCCN)NC(=O)[C@@H](CC(C)C)NC(=O)[C@H](CC(C)C)NC(=O)[C@H](CCCCN)NC(=O)[C@H](CCSC)NC(=O)[C@H](Cc1c[nH]c2ccccc12)NC(=O)[C@H](CCCCN)NC(=O)CN)C(=O)N[C@@H](CC(C)C)C(=O)N[C@@H](CCCCN)C(N)=O [XIII] | 4,0 µmol.l^-1 | >400 µM | 2,8 µmol.l^-1 | 8,0 µmol.l^-1 | 10,0 µmol.l^-1 | >100 µmol/L | 5,0 µmol.l^-1 | 32,0 µmol.l^-1 | 13,3 µmol.l^-1 | 32,0 µmol.l^-1 | 18,7 µmol.l^-1 | CFU/implant [2]: 6.0x10^3 CFU/implant; CFU/implant ([3]; cement without peptide 8.0x10^4): 0 CFU/implant; CFU/implant (Candida glabrata DSY565): 2.4x10^3 CFU/implant; number of colonies from the surface of the implant [5]: zero |
| CC[C@H](C)[C@H](NC(=O)[C@H](CCCCN)NC(=O)[C@H](CCCCN)NC(=O)[C@H](CC(C)C)NC(=O)[C@H](CC(C)C)NC(=O)[C@H](CCCCN)NC(=O)[C@H](CCSC)NC(=O)[C@H](Cc1c[nH]c2ccccc12)NC(=O)[C@H](CCCCN)NC(=O)CN)C(=O)N[C@@H](CC(C)C)C(=O)N[C@@H](CCCCN)C(N)=O [III] | 2,3 µmol.l^-1 | 339 µM | 1,8 µmol.l^-1 | 5,7 µmol.l^-1 | 9,0 µmol.l^-1 | 13,3 µmol.l^-1 | 2,8 µmol.l^-1 | 10,0 µmol.l^-1 | 3,6 µmol.l^-1 | 5,7 µmol.l^-1 | 6,3 µmol.l^-1 | CFU/hole [10]: 2,3x10^5 / 2,3x10^5 CFU/hole; CFU/hole (MRSA 6271 [11]; III (5 mg)): 1,9x10^2 CFU/hole; CFU/hole (MRSA 6271 [11]; III (10 mg)): 7,6x10^2 CFU/hole; CFU/implant ([3]; cement without peptide 6.0x10^3): 2 CFU/implant; CFU/implant [12]: 1.1x10^3 CFU/implant; CFU/implant (MRSA 6271 [13]; first experiment with III): 5.1 x 10^3 CFU/implant; CFU/implant (MRSA 6271 [13]; second experiment with III): 0 CFU/implant; CFU/implant [14]: 0 CFU/implant; CFU/implant (P. aeruginosa 5482): 2.6x10^1 CFU/implant; CFU/hole [15]: 0 in all cases CFU/hole; CFU/implant ([16]; cement without peptide 2.8x10^6): 0 CFU/implant; CFU/implant ([16]; cement without peptide 2.9x10^5): 0 CFU/implant; CFU/implant [17]: 0 CFU/implant |
